Assay results: the supplement of paper PMC11208160

Test: recombinant UMI read abundance after kanamycin selection (control-corrected) (log10(CPM+1)); higher = more efficient recombination; extreme values may be limits of the assay; sequences stand for … in AGTGCAGAGAAAATCGGCCAGTTTTCTCTGCCTGCAGTCCGCATGCCGTGGGACCCCTTGGGTTCTAACCTGTTGCCTAGATTTATGCAGCGGACTGCCTTTCTCCCAAAGTGATAAACCGG…AGGTTGGTTTCACT; site = the 11-nt donor
Method in brief: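 Under IPTG (0.07 mM) plus kanamycin, or without selection, Escherichia coli carrying a UMI-tagged donor and donor-binding-loop pair library and a target plasmid for the IS621 bridge recombinase were plated in two replicates. Recombinant UMIs were PCR-amplified across the donor–target junction and sequenced. Counts were converted to CPM, averaged over replicates, scaled by control-derived factors and reported as log10(CPM+1).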
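Note: IS621 bridge recombinase in Escherichia coli cells against a fixed T5 target plasmid.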

Q: For “TCGCCAGCATGGACCGGTTTTCCCGGTAATCCGTATTTGTG (site TCGCCAGCTCA)”, which “recombinant UMI read abundance (log10)” value is on record?
A: 0.0192

Q: With “TCGCCATCATGGACCGGTTTTCCCGGTAATCCGTATTTGTT (site TCGCCATCTAA)” as the sequence, how does the “recombinant UMI read abundance (log10)” value read?
A: 0.0036

Q: Which “recombinant UMI read abundance (log10)” value does the source give for “TCGCCTTCATGGACCGGTTTTCCCGGTAATCCGTATTTGGT (site TAGCCTTCTAC)” here?
A: 0.0118

Q: For “TCGCCTTCATGGACCGGTTTTCCCGGTAATCCGTATTTGGT (site TCGCCTTCTAC)”, which “recombinant UMI read abundance (log10)” value is on record?
A: 0.00817

Q: Which “recombinant UMI read abundance (log10)” value does the source give for “TCGCCTTCATGGACCGGTTTTCCCGGTAATCCGTATTTGGT (site TGGCCTTCTAC)” here?
A: 0.00543

Q: Which “recombinant UMI read abundance (log10)” value does the source give for “TCGCCTTCATGGACCGGTTTTCCCGGTAATCCGTATTTGGT (site TTGCCTTCTAC)” here?
A: 0.00786

Q: For “TCGCGAACATGGACCGGTTTTCCCGGTAATCCGTATTTGTA (site TCGCGAACTTA)”, which “recombinant UMI read abundance (log10)” value is on record?
A: 1.18

Q: For “TCGCTAGCATGGACCGGTTTTCCCGGTAATCCGTATTTGAA (site TAGCTAGCTTT)”, which “recombinant UMI read abundance (log10)” value is on record?
A: 0.00313

Q: Which “recombinant UMI read abundance (log10)” value does the source give for “TCGCTAGCATGGACCGGTTTTCCCGGTAATCCGTATTTGAA (site TCGCTAGCTTT)” here?
A: 0.00622

Q: For “TCGCTAGCATGGACCGGTTTTCCCGGTAATCCGTATTTGAA (site TGGCTAGCTTT)”, which “recombinant UMI read abundance (log10)” value is on record?
A: 0

Q: Which “recombinant UMI read abundance (log10)” value does the source give for “TCGCTAGCATGGACCGGTTTTCCCGGTAATCCGTATTTGAA (site TTGCTAGCTTT)” here?
A: 0.0117

Q: For “TCGCTAGCATGGACCGGTTTTCCCGGTAATCCGTATTTGGC (site TCGCTAGCTGC)”, which “recombinant UMI read abundance (log10)” value is on record?
A: 0

Q: Which “recombinant UMI read abundance (log10)” value does the source give for “TCGCTGTCATGGACCGGTTTTCCCGGTAATCCGTATTTGGA (site TCGCTGTCTTC)” here?
A: 1.34

Q: For “TCGGAGACATGGACCGGTTTTCCCGGTAATCCGTATTTGAT (site TCGGAGACTAT)”, which “recombinant UMI read abundance (log10)” value is on record?
A: 1.93

Q: Which “recombinant UMI read abundance (log10)” value does the source give for “TCGGATACATGGACCGGTTTTCCCGGTAATCCGTATTTGCC (site TCGGATACTGG)” here?
A: 0.615

Q: With “TCGGATCCATGGACCGGTTTTCCCGGTAATCCGTATTTGTC (site TCGGATCCTGA)” as the sequence, how does the “recombinant UMI read abundance (log10)” value read?
A: 0.795

Q: Which “recombinant UMI read abundance (log10)” value does the source give for “TCGGATGCATGGACCGGTTTTCCCGGTAATCCGTATTTGAG (site TCGGATGCTCT)” here?
A: 1.56

Q: For “TCGGTATCATGGACCGGTTTTCCCGGTAATCCGTATTTGCA (site ACAGTATCTTG)”, which “recombinant UMI read abundance (log10)” value is on record?
A: 1.54

Q: For “TCGGTATCATGGACCGGTTTTCCCGGTAATCCGTATTTGCA (site TCGGTATCTTG)”, which “recombinant UMI read abundance (log10)” value is on record?
A: 2.31

Q: Which “recombinant UMI read abundance (log10)” value does the source give for “TCGTAGCCATGGACCGGTTTTCCCGGTAATCCGTATTTGTG (site TCGTAGCCTCA)” here?
A: 0.0471

Q: Which “recombinant UMI read abundance (log10)” value does the source give for “TCGTATGCATGGACCGGTTTTCCCGGTAATCCGTATTTGAC (site TCGTATGCTGT)” here?
A: 0.101

Q: With “TCGTCACCATGGACCGGTTTTCCCGGTAATCCGTATTTGTG (site TCGTCACCTCA)” as the sequence, how does the “recombinant UMI read abundance (log10)” value read?
A: 0.0129

Q: With “TCGTGACCATGGACCGGTTTTCCCGGTAATCCGTATTTGCA (site TCGTGACCTTG)” as the sequence, how does the “recombinant UMI read abundance (log10)” value read?
A: 0

Q: Which “recombinant UMI read abundance (log10)” value does the source give for “TCGTTCCCATGGACCGGTTTTCCCGGTAATCCGTATTTGAC (site TCGTTCCCTGT)” here?
A: 0

Q: For “TCTAAAGCATGGACCGGTTTTCCCGGTAATCCGTATTTGAT (site ACTAAAGCTAT)”, which “recombinant UMI read abundance (log10)” value is on record?
A: 0

Q: Which “recombinant UMI read abundance (log10)” value does the source give for “TCTAAAGCATGGACCGGTTTTCCCGGTAATCCGTATTTGAT (site CCTAAAGCTAT)” here?
A: 0

Q: With “TCTAAAGCATGGACCGGTTTTCCCGGTAATCCGTATTTGAT (site GCTAAAGCTAT)” as the sequence, how does the “recombinant UMI read abundance (log10)” value read?
A: 0

Q: With “TCTAAAGCATGGACCGGTTTTCCCGGTAATCCGTATTTGAT (site TCTAAAGCTAT)” as the sequence, how does the “recombinant UMI read abundance (log10)” value read?
A: 0.373

Q: With “TCTAATTCATGGACCGGTTTTCCCGGTAATCCGTATTTGAA (site TCTAATTCTTT)” as the sequence, how does the “recombinant UMI read abundance (log10)” value read?
A: 0

Q: Which “recombinant UMI read abundance (log10)” value does the source give for “TCTAGACCATGGACCGGTTTTCCCGGTAATCCGTATTTGCC (site TCTAGACCTGG)” here?
A: 0

Q: With “TCTATGCCATGGACCGGTTTTCCCGGTAATCCGTATTTGTT (site TCTATGCCTAA)” as the sequence, how does the “recombinant UMI read abundance (log10)” value read?
A: 0.00238

Q: For “TCTGATACATGGACCGGTTTTCCCGGTAATCCGTATTTGCT (site TCTGATACTAG)”, which “recombinant UMI read abundance (log10)” value is on record?
A: 0

Q: With “TCTGCAACATGGACCGGTTTTCCCGGTAATCCGTATTTGAA (site TCTGCAACTTT)” as the sequence, how does the “recombinant UMI read abundance (log10)” value read?
A: 0.00363

Q: Which “recombinant UMI read abundance (log10)” value does the source give for “TCTGCACCATGGACCGGTTTTCCCGGTAATCCGTATTTGGA (site TCTGCACCTTC)” here?
A: 0.0216

Q: For “TCTGCAGCATGGACCGGTTTTCCCGGTAATCCGTATTTGAA (site TCTGCAGCTTT)”, which “recombinant UMI read abundance (log10)” value is on record?
A: 0.00333

Q: For “TCTGCTGCATGGACCGGTTTTCCCGGTAATCCGTATTTGGC (site TCTGCTGCTGC)”, which “recombinant UMI read abundance (log10)” value is on record?
A: 0

Q: For “TCTTACCCATGGACCGGTTTTCCCGGTAATCCGTATTTGGA (site TCTTACCCTTC)”, which “recombinant UMI read abundance (log10)” value is on record?
A: 0.0207

Q: Which “recombinant UMI read abundance (log10)” value does the source give for “TCTTACTCATGGACCGGTTTTCCCGGTAATCCGTATTTGCA (site TCATACTCTTG)” here?
A: 0.465

Q: With “TCTTACTCATGGACCGGTTTTCCCGGTAATCCGTATTTGCA (site TCCTACTCTTG)” as the sequence, how does the “recombinant UMI read abundance (log10)” value read?
A: 1.09

Q: For “TCTTACTCATGGACCGGTTTTCCCGGTAATCCGTATTTGCA (site TCGTACTCTTG)”, which “recombinant UMI read abundance (log10)” value is on record?
A: 0.946

Q: With “TCTTACTCATGGACCGGTTTTCCCGGTAATCCGTATTTGCA (site TCTTACTCTTG)” as the sequence, how does the “recombinant UMI read abundance (log10)” value read?
A: 0.535

Q: Which “recombinant UMI read abundance (log10)” value does the source give for “TCTTATACATGGACCGGTTTTCCCGGTAATCCGTATTTGCT (site TCTTATACTAG)” here?
A: 0.00302

Q: With “TCTTATCCATGGACCGGTTTTCCCGGTAATCCGTATTTGGA (site TCTTATCCTTC)” as the sequence, how does the “recombinant UMI read abundance (log10)” value read?
A: 0.0232

Q: Which “recombinant UMI read abundance (log10)” value does the source give for “TCTTCCCCATGGACCGGTTTTCCCGGTAATCCGTATTTGTA (site TATTCCCCTTA)” here?
A: 0.0172

Q: With “TCTTCCCCATGGACCGGTTTTCCCGGTAATCCGTATTTGTA (site TCTTCCCCTTA)” as the sequence, how does the “recombinant UMI read abundance (log10)” value read?
A: 0

Q: For “TCTTCCCCATGGACCGGTTTTCCCGGTAATCCGTATTTGTA (site TGTTCCCCTTA)”, which “recombinant UMI read abundance (log10)” value is on record?
A: 0.00596

Q: Which “recombinant UMI read abundance (log10)” value does the source give for “TCTTCCCCATGGACCGGTTTTCCCGGTAATCCGTATTTGTA (site TTTTCCCCTTA)” here?
A: 0.00951

Q: Which “recombinant UMI read abundance (log10)” value does the source give for “TCTTGCCCATGGACCGGTTTTCCCGGTAATCCGTATTTGAT (site ACTTGCCCTAT)” here?
A: 0.00765

Q: For “TCTTGCCCATGGACCGGTTTTCCCGGTAATCCGTATTTGAT (site CCTTGCCCTAT)”, which “recombinant UMI read abundance (log10)” value is on record?
A: 0.0026

Q: Which “recombinant UMI read abundance (log10)” value does the source give for “TCTTGCCCATGGACCGGTTTTCCCGGTAATCCGTATTTGAT (site GCTTGCCCTAT)” here?
A: 0.00287

Q: For “TCTTGCCCATGGACCGGTTTTCCCGGTAATCCGTATTTGAT (site TCTTGCCCTAT)”, which “recombinant UMI read abundance (log10)” value is on record?
A: 0.0104

Q: With “TCTTTAGCATGGACCGGTTTTCCCGGTAATCCGTATTTGCA (site TCTTTAGCTTG)” as the sequence, how does the “recombinant UMI read abundance (log10)” value read?
A: 0

Q: With “TGAAAGACATGGACCGGTTTTCCCGGTAATCCGTATTTGTA (site TGAAAGACTTA)” as the sequence, how does the “recombinant UMI read abundance (log10)” value read?
A: 2.37

Q: With “TGAACACCATGGACCGGTTTTCCCGGTAATCCGTATTTGCA (site TGAACACCTTG)” as the sequence, how does the “recombinant UMI read abundance (log10)” value read?
A: 0.302

Q: For “TGAACATCATGGACCGGTTTTCCCGGTAATCCGTATTTGGC (site TGAACATCTGC)”, which “recombinant UMI read abundance (log10)” value is on record?
A: 1.37

Q: For “TGAACGACATGGACCGGTTTTCCCGGTAATCCGTATTTGGA (site TGAACGACTTC)”, which “recombinant UMI read abundance (log10)” value is on record?
A: 0.221

Q: Which “recombinant UMI read abundance (log10)” value does the source give for “TGAAGAGCATGGACCGGTTTTCCCGGTAATCCGTATTTGCC (site TGAAGAGCTGG)” here?
A: 1.62
